Measured values from US10981894B2, “Melanocortin subtype-2 receptor (MC2R) antagonists and uses thereof” (Crinetics Pharmaceuticals, Inc., priority 2018, dated 2021).

Each compound was assayed against hMC2 receptor (Homo sapiens, UniProt Q01718) (assay: hMC2 membrane binding assay ([125I]ACTH (1-39) Tyr23, SPA)). Details: crude hMC2R membranes from CRE-bla-CHO-K1 cells expressing hMC2 receptor and hMRAP; [125I]ACTH (1-39) Tyr23 0.2 nM; 1.5 hours at room temperature; read-out: MC2R binding potency.
hMC2 receptor, sequence (Q01718 whole entry): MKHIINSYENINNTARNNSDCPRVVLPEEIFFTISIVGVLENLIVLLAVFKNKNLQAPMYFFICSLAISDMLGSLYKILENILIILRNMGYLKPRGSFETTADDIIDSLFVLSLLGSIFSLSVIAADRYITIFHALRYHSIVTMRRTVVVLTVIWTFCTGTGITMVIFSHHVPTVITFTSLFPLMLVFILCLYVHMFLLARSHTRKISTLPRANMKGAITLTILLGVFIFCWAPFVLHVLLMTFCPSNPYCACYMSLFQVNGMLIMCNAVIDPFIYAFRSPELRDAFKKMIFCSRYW
hMC2 receptor, sequence (Q8TCY5 whole entry partner): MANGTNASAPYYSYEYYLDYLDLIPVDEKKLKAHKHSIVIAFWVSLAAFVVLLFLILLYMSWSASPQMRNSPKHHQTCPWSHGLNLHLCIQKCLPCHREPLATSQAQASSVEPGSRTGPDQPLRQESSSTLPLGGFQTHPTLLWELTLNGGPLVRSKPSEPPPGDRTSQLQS
Parameters: scale not given here
In short: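 Ki comes from non-linear regression of SPA scintillation counts. Displacement of 0.2 nM [125I]ACTH(1-39) Tyr23 by compound dose series (usually 0–10,000 nM final) ran 1.5 h at room temperature. Membranes came from CHO-K1 CRE-bla cells stably expressing hMC2R plus hMRAP, bead-coupled in pH 7.4 buffer with 0.2% BSA.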

SMILES | Ki [nM]
CCOc1ncccc1-c1ccc(N2CCN(C(=O)c3ccc(C(F)(F)F)nc3N(C)C)C[C@H]2CC)c(C(=O)NCCN)c1 [Compound 1-76, N-(2-aminoethyl)-2-[(2R)-4-[2-(dimethylamino)-6-(trifluoromethyl)pyridine-3-carbonyl]-2-ethylpiperazin-1-yl]-5-(2-ethoxypyridin-3-yl)benzamide] | < 10
CCOc1ncccc1-c1ccc(N2CCN(C(=O)N3CCc4cccc(C(F)(F)F)c43)C[C@H]2CC)c(C(=O)NC2CN(C)C2)n1 [Compound 1-418, 2′-ethoxy-5-[(2R)-2-ethyl-4-[7-(trifluoromethyl)-2,3-dihydro-1H-indole-1-carbonyl]piperazin-1-yl]-N-(1-methylazetidin-3-yl)-[2,3′-bipyridine]-6-carboxamide] | < 10
CCOc1ncccc1-c1ccc(N2CCN(C(=O)c3ccc(OC)cc3C(F)(F)F)C[C@H]2CC)c(C(=O)NCCN(C)C)n1 [Compound 1-169, N-[2-(dimethylamino)ethyl]-2′-ethoxy-5-[(2R)-2-ethyl-4-[4-methoxy-2-(trifluoromethyl)benzoyl]piperazin-1-yl]-[2,3′-bipyridine]-6-carboxamide] | < 10
CCOc1ncccc1-c1ccc(N2CCN(C(=O)c3ccc(Cl)cc3C(F)(F)F)C[C@H]2CC)c(C(=O)NCC2=NCCN2)c1F [Compound 1-188, 6-[(2R)-4-[4-chloro-2-(trifluoromethyl)benzoyl]-2-ethylpiperazin-1-yl]-N-[(4,5-dihydro-1H-imidazol-2-yl)methyl]-3-(2-ethoxypyridin-3-yl)-2-fluorobenzamide] | < 10
CCOc1ncccc1-c1ccc(N2CCN(C(=O)C3(C(F)F)CCCC3)C[C@H]2CC)c(C(=O)N[C@@H]2CCN(C)C2)n1 [Compound 1-416, 5-[(2R)-4-[1-(difluoromethyl)cyclopentanecarbonyl]-2-ethylpiperazin-1-yl]-2′-ethoxy-N-[(3R)-1-methylpyrrolidin-3-yl]-[2,3′-bipyridine]-6-carboxamide] | < 10
CCOc1ccc(C(=O)N2CCN(c3ccc(-c4cccnc4OC)nc3C(=O)NC3CN(C)C3)[C@H](CC)C2)c(C(F)(F)F)n1 [Compound 1-247, 5-[(2R)-4-[6-ethoxy-2-(trifluoromethyl)pyridine-3-carbonyl]-2-ethylpiperazin-1-yl]-2′-methoxy-N-(1-methylazetidin-3-yl)-[2,3′-bipyridine]-6-carboxamide] | < 10
CCOc1ccccc1-c1ccc(N2CCN(C(=O)OC3(C(F)(F)F)CCC3)C[C@H]2CC)c(C(=O)N[C@@H]2CCNC2)n1 [Compound 1-338, 1-(trifluoromethyl)cyclobutyl (3R)-4-[6-(2-ethoxyphenyl)-2-{[(3R)-pyrrolidin-3-yl]carbamoyl}pyridin-3-yl]-3-ethylpiperazine-1-carboxylate] | < 10
CCOc1ncccc1-c1ccc(N2CCN(C(=O)OC(c3ccccc3)C(C)(C)C)C[C@H]2CC)c(C(=O)N[C@@H]2CCN(C)C2)n1 (stereo partly drawn) [Compound 1-408, 2,2-dimethyl-1-phenylpropyl (3R)-4-(2′-ethoxy-6-{[(3R)-1-methylpyrrolidin-3-yl]carbamoyl}-[2,3′-bipyridin]-5-yl)-3-ethylpiperazine-1-carboxylate] | < 10
CCOc1ncccc1-c1ccc(N2CCN(C(=O)c3ccc(C)cc3Cl)C[C@H]2CC)c(C(=O)NCCN)c1 [Compound 1-43, N-(2-aminoethyl)-2-[(2R)-4-(2-chloro-4-methylbenzoyl)-2-ethylpiperazin-1-yl]-5-(2-ethoxypyridin-3-yl)benzamide] | < 10
CCOc1ncccc1-c1ccc(N2CCN(C(=O)N3CCCC[C@H]3C(F)(F)F)C[C@H]2CC)c(C(=O)N[C@@H]2CCN(C)C2)n1 [Compound 1-427, 2′-ethoxy-5-[(2R)-2-ethyl-4-[(2S)-2-(trifluoromethyl)piperidine-1-carbonyl]piperazin-1-yl]-N-[(3R)-1-methylpyrrolidin-3-yl]-[2,3′-bipyridine]-6-carboxamide] | < 10
CCOc1ncccc1-c1ccc(N2CCN(C(=O)c3ccc(C)cc3C(F)(F)F)C[C@H]2CC)c(C(=O)NCCN)c1 [Compound 1-59, N-(2-aminoethyl)-5-(2-ethoxypyridin-3-yl)-2-[(2R)-2-ethyl-4-[4-methyl-2-(trifluoromethyl)benzoyl]piperazin-1-yl]benzamide] | < 10
CC[C@@H]1CN(C(=O)c2ccc(C(F)(F)F)cc2Cl)CCN1c1ccc(-c2ccccc2OC)cc1C(=O)NCCN [Compound 1-2, N-(2-aminoethyl)-4-[(2R)-4-[2-chloro-4-(trifluoromethyl)benzoyl]-2-ethylpiperazin-1-yl]-2′-methoxy-[1,1′-biphenyl]-3-carboxamide] | < 10
CCOc1ccccc1-c1ccc(N2CCN(C(=O)c3ccccc3-c3ccc(CN)c(F)c3)C[C@H]2CC)c(C(=O)NCCN)c1 [Compound 1-26, N-(2-aminoethyl)-4-[(2R)-4-[4′-(aminomethyl)-3′-fluoro-[1,1′-biphenyl]-2-carbonyl]-2-ethylpiperazin-1-yl]-2′-ethoxy-[1,1′-biphenyl]-3-carboxamide] | < 10
CCOc1ccccc1-c1ccc(N2CCN(C(=O)c3ccc(C(F)(F)F)cc3Cl)C[C@H]2CC)c(CNC[C@H](C)O)c1 [Compound 2-2, (2S)-1-[({4-[(2R)-4-[2-chloro-4-(trifluoromethyl)benzoyl]-2-ethylpiperazin-1-yl]-2′-ethoxy-[1,1′-biphenyl]-3-yl}methyl)amino]propan-2-ol] | < 10
CCOc1ncccc1-c1ccc(N2CCN(C(=O)N3CCC[C@H]3C(C)(C)F)C[C@H]2CC)c(C(=O)N[C@@H]2CCN(C)C2)n1 [Compound 1-413, 2′-ethoxy-5-[(2R)-2-ethyl-4-[(2S)-2-(2-fluoropropan-2-yl)pyrrolidine-1-carbonyl]piperazin-1-yl]-N-[(3R)-1-methylpyrrolidin-3-yl]-[2,3′-bipyridine]-6-carboxamide] | < 10
CCOc1ncccc1-c1ccc(N2CCN(C(=O)C34CCC(C(F)(F)F)(CC3)C4)C[C@H]2CC)c(C(=O)NC2CN(C)C2)n1 [Compound 1-394, 2′-ethoxy-5-[(2R)-2-ethyl-4-[4-(trifluoromethyl)bicyclo[2.2.1]heptane-1-carbonyl]piperazin-1-yl]-N-(1-methylazetidin-3-yl)-[2,3′-bipyridine]-6-carboxamide] | < 10
CCOc1ncccc1-c1ccc(N2CCN(C(=O)C3(CC(F)F)CCC3)C[C@H]2CC)c(C(=O)N[C@@H]2CCNC2)n1 [Compound 1-328, 5-[(2R)-4-[1-(2,2-difluoroethyl)cyclobutanecarbonyl]-2-ethylpiperazin-1-yl]-2′-ethoxy-N-[(3R)-pyrrolidin-3-yl]-[2,3′-bipyridine]-6-carboxamide] | < 10
CCOc1ncccc1-c1ccc(N2CCN(C(=O)C3(C(F)(F)F)CCCC3)C[C@H]2CC)c(C(=O)N[C@@H]2CN3CCC2CC3)n1 [Compound 1-400, N-[(3S)-1-azabicyclo[2.2.2]octan-3-yl]-2′-ethoxy-5-[(2R)-2-ethyl-4-[1-(trifluoromethyl)cyclopentanecarbonyl]piperazin-1-yl]-[2,3′-bipyridine]-6-carboxamide] | < 10
CCOc1ncccc1-c1ccc(N2CCN(C(=O)C3(c4ccccc4)CCCC3)C[C@H]2CC)c(C(=O)N[C@@H]2CCNC2)n1 [Compound 1-352, 2′-ethoxy-5-[(2R)-2-ethyl-4-(1-phenylcyclopentanecarbonyl)piperazin-1-yl]-N-[(3R)-pyrrolidin-3-yl]-[2,3′-bipyridine]-6-carboxamide] | < 10
CCOc1ncccc1-c1ccc(N2CCN(C(=O)O[C@@H](C(C)(C)C)C(F)(F)F)C[C@H]2CC)c(C(=O)N[C@@H]2CN3CCC2CC3)n1 [Compound 1-403, (2S)-1,1,1-trifluoro-3,3-dimethylbutan-2-yl (3R)-4-(6-{[(3S)-1-azabicyclo[2.2.2]octan-3-yl]carbamoyl}-2′-ethoxy-[2,3′-bipyridin]-5-yl)-3-ethylpiperazine-1-carboxylate; or (2R)-1,1,1-trifluoro-3,3-dimethylbutan-2-yl (3R)-4-(6-{[(3S)-1-azabicyclo[2.2.2]octan-3-yl]carbamoyl}-2′-ethoxy-[2,3′-bipyridin]-5-yl)-3-ethylpiperazine-1-carboxylate] | < 10
CCOc1ncccc1-c1ccc(N2CCN(C(=O)N3CCCC[C@H]3C(F)(F)F)C[C@H]2CC)c(C(=O)N[C@H]2CCN(C)C2)n1 [Compound 1-434, 2′-ethoxy-5-[(2R)-2-ethyl-4-[(2S)-2-(trifluoromethyl)piperidine-1-carbonyl]piperazin-1-yl]-N-[(3S)-1-methylpyrrolidin-3-yl]-[2,3′-bipyridine]-6-carboxamide] | < 10
CCOc1ncccc1-c1ccc(N2CCN(C(=O)c3ccc(Cl)cc3C(F)(F)F)C[C@H]2CC)c(C(=O)NCCN2CCCC2)c1 [Compound 1-49, 2-[(2R)-4-[4-chloro-2-(trifluoromethyl)benzoyl]-2-ethylpiperazin-1-yl]-5-(2-ethoxypyridin-3-yl)-N-[2-(pyrrolidin-1-yl)ethyl]benzamide] | < 10
CCOc1ccncc1-c1ccc(N2CCN(C(=O)c3ccc(C(F)(F)F)cc3Cl)C[C@H]2CC)c(C(=O)NCCN)c1 [Compound 1-35, N-(2-aminoethyl)-2-[(2R)-4-[2-chloro-4-(trifluoromethyl)benzoyl]-2-ethylpiperazin-1-yl]-5-(4-ethoxypyridin-3-yl)benzamide] | < 10
CCOc1ccc(C(=O)N2CCN(c3ccc(-c4cccnc4OCC)nc3CN)[C@H](CC)C2)c(C(F)(F)F)c1 [Compound 2-25, 1-{2′-ethoxy-5-[(2R)-4-[4-ethoxy-2-(trifluoromethyl)benzoyl]-2-ethylpiperazin-1-yl]-[2,3′-bipyridin]-6-yl}methanamine] | < 10
CCOc1ccccc1-c1ccc(N2CCN(C(=O)C3(C(F)(F)F)CCCC3)C[C@H]2CC)c(C(=O)N[C@H]2CCN(C)C2)n1 [Compound 1-401, 6-(2-ethoxyphenyl)-3-[(2R)-2-ethyl-4-[1-(trifluoromethyl)cyclopentanecarbonyl]piperazin-1-yl]-N-[(3S)-1-methylpyrrolidin-3-yl]pyridine-2-carboxamide] | < 10
